Source: paper PMC10683025, “Discovery of a Hydroxylamine-Based Brain-Penetrant EGFR Inhibitor for Metastatic Non-Small-Cell Lung Cancer” (Journal of Medicinal Chemistry, 2023)
“Also recorded” adds a separate entry of the source.

How the values were obtained:
CHO-K1 cells = assay: In vitro micronucleus test; format: cell-based, Chinese hamster; conditions: ± rat liver S9; valid to 31 μM + S9 and 8 μM − S9
Procedure: Compound 9 was assessed for genotoxicity by Eurofins Panlabs using the in vitro micronucleus test in Chinese hamster ovary (CHO-K1) cells as previously described.[79] Compound 9 was incubated in a 96-well plate format at varying concentrations (8, 16, 31, 62, 125, 250, 500, and 1000 μM) for 4 h at 37 °C with metabolic activation by rat liver S9 and 24 h at 37 °C without metabolic activation by rat liver S9. High content analysis and fluorescence imaging were used to detect micronuclei and compared against positive controls (cyclophosphamide (ran at 7.2 μM) and mitomycin C (ran at 0.3 μM)). Significances of the positive counts between the treatment and control were determined by one-tailed t test with two-sample equal variance.

[1] = biological target: T1, ABL1(E255K)-phosphorylated (Homo sapiens, UniProt P00519, E255K); assay: KINOMEScan; format: binding; conditions: read-out: Percent Control
T1 construct: purchased Eurofins DiscoverX
Text: (§1) Percent control was mapped onto the kinome tree using TREEspot.

[2] = Oral CNS pharmacokinetic assessment; format: in vivo, Sprague-Dawley rats; conditions: male, Sprague-Dawley, brain, Rat 20 mg/kg (PO)
Procedure: Animal experiments were performed at Pharmaron, Inc. and animal use was approved by Pharmaron’s Institutional Animal Care and Use Committee (IACUC) in Pharmaron (Pharmaron IACUC, Protocol #PK-M-07182022, #PK-R-06012022, and #ON-CELL-XEN-06012022) following the guidance of AAALAC. Six- to eight-week-old male Sprague-Dawley rats (approximately 200–300 g) obtained from Si Bei Fu Laboratory Animal Technology Co., six- to eight-week-old male CD1 mice (approximately 20–30 g) obtained from Si Bei Fu Laboratory Animal Technology Co., and six- to eight-week-old female BALB/c nude mice (approximately 20–30 g) obtained from Si Bei Fu Laboratory Animal Technology Co., were used in the pharmacokinetic studies. Six- to eight-week-old female BALB/c nude mice (approximately 18–22 g) obtained from Beijing Anikeeper Biotech Co., Ltd. were used in the intracranial PDX study. […]
Oral CNS pharmacokinetic assessment of 9 was done by oral gavage (formulation: 1% methylcellulose) followed by blood and brain sampling at 7 time points (0.25, 0.5, 1, 2, 4, 8, 24 h post dose) with n = 3 animals per time point (n = 21 total). […] Concentrations of 9 in the plasma and brain samples were determined using LC-MS/MS and WinNonlin 8.3 (Phoenix) was used for pharmacokinetic calculations. […]

BRAF(V600E) = biological target: T2, BRAF(V600E) (Homo sapiens, UniProt P15056, V600E); assay: KINOMEScan; format: binding; conditions: read-out: Percent Control
T2 construct: purchased Eurofins DiscoverX (KINOMEscan)
T2 sequence (P15056 whole entry V600E): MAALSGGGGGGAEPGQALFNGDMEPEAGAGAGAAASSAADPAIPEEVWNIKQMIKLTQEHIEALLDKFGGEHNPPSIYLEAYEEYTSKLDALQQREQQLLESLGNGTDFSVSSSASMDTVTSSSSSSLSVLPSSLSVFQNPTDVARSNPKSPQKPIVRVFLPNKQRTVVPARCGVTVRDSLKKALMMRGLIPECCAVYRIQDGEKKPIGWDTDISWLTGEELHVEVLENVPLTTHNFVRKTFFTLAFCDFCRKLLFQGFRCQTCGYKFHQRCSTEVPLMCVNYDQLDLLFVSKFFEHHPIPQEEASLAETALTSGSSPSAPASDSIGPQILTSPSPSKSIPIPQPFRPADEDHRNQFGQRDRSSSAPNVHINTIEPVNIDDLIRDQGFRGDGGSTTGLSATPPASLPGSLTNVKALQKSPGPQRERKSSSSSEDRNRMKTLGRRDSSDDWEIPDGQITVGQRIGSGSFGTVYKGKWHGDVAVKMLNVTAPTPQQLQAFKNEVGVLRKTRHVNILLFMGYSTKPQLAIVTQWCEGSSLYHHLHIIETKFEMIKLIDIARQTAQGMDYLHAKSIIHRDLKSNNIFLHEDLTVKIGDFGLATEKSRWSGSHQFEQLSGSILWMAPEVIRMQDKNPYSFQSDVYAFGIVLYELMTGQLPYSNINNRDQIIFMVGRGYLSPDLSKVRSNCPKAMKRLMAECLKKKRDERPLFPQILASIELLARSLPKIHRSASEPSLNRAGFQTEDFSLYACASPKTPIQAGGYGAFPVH
Text: as §1

T1 sequence (P00519 whole entry E255K): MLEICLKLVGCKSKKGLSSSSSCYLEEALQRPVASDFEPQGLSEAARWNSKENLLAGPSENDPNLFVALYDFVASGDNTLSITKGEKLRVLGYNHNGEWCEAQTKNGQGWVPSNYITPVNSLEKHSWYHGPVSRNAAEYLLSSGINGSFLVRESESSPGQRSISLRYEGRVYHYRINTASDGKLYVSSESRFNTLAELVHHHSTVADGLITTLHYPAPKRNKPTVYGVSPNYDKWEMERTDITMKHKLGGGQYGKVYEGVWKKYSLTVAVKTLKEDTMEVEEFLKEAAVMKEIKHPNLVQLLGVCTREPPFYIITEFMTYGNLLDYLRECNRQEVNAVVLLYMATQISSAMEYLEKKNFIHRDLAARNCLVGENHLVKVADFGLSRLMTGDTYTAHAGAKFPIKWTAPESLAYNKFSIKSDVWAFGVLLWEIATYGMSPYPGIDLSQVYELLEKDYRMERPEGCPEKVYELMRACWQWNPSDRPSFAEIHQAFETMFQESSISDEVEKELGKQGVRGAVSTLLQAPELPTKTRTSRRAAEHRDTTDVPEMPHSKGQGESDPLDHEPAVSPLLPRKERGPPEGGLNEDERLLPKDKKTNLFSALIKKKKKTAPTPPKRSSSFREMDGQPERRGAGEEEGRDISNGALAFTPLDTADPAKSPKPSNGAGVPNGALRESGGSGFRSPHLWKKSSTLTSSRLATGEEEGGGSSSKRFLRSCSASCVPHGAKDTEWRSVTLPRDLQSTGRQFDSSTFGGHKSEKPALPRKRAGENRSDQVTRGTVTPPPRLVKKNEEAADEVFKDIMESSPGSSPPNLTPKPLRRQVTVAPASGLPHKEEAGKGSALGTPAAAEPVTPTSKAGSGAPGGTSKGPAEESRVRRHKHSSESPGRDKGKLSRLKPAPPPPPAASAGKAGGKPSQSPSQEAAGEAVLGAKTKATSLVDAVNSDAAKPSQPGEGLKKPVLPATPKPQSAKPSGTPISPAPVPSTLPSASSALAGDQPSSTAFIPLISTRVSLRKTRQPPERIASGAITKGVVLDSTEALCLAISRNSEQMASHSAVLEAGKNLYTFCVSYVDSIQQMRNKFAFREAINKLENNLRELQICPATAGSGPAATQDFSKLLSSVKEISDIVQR

COc1cc2ncnc(Nc3cccc(Cl)c3F)c2cc1OCCON1CCN(C)CC1 [Compound 9, N-(3-Chloro-2-fluorophenyl)-7-methoxy-6-(2-((4-methylpiperazin-1-yl)oxy)ethoxy)quinazolin-4-amine]
In vitro micronucleus (CHO-K1 cells): neither mutagenic nor genotoxic potential; also recorded: Negative
remaining binding at 1 µM [1]: 6.4%
Kp at 24 h ([2]; read-out: Kp brain (AUCinf)): 0.95
Kp uu at 24 h ([2]; read-out: Kp,uu brain (AUCinf)): 0.33
remaining binding at 1 µM (BRAF(V600E)): 82%
